What was measured:
Type in all cases: cell-based
[1] = target: T1, human TLR5 (Homo sapiens, UniProt O60602); assay: TLR ligand screening: NF-κB activation (SEAP reporter) in HEK293 cells expressing TLR5; conditions: one concentration: NTR001 10 uM, Inosine 100 uM; FIG. 2
T1 construct: expressed in transfected cells; host or cells: HEK293
Experimental: (§1) Method: TLR stimulation is tested by assessing NF-κB activation in HEK293 cells expressing a given TLR. The Secreted Embryonic Alkaline Phosphatase (SEAP) reporter is under the control of a promoter inducible by the transcription factor NF-κB. This reporter gene allows the monitoring of signaling through the TLR, based on the activation of NF-κB. The compounds are evaluated at one concentration and compared to control ligands. This step is performed in triplicate.

[2] = target: T2, human TLR3 (Homo sapiens, UniProt O15455); assay: TLR ligand screening: NF-κB activation (SEAP reporter) in HEK293 cells expressing TLR3; conditions: one concentration: NTR001 10 uM, Inosine 100 uM; FIG. 2
T2 construct: expressed in transfected cells; host or cells: HEK293
T2 sequence (O15455 24-904): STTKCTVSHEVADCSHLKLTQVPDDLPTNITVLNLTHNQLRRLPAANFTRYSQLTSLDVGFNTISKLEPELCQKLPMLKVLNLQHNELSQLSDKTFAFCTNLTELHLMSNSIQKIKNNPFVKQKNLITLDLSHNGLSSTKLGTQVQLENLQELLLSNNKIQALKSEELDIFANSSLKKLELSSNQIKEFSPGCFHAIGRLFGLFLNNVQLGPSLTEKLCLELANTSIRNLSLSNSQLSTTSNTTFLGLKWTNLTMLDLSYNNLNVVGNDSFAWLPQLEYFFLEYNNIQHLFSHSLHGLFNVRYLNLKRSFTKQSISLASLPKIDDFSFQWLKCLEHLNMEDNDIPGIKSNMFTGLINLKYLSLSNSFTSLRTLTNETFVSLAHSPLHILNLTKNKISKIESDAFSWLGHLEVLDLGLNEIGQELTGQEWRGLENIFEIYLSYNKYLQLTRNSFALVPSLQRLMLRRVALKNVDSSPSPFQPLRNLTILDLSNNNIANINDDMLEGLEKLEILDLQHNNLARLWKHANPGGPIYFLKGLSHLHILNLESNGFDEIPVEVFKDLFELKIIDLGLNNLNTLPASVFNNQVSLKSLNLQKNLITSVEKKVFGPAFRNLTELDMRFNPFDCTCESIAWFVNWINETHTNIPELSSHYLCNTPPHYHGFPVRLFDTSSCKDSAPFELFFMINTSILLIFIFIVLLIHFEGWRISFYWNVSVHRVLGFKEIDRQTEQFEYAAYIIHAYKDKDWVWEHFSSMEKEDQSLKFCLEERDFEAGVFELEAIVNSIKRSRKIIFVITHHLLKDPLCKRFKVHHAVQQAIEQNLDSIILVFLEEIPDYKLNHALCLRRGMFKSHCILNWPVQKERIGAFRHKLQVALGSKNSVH
Experimental: as §1

[3] = target: T3, human TLR4 (Homo sapiens, UniProt O00206+Q9Y6Y9); assay: TLR ligand screening: NF-κB activation (SEAP reporter) in HEK293 cells expressing TLR4; conditions: one concentration: Guanosine 100 uM, NTR001 10 uM, Inosine 100 uM; FIG. 2
T3 construct: expressed in transfected cells; host or cells: HEK293
Experimental: as §1

[4] = target: T4, human TLR8 (Homo sapiens, UniProt Q9NR97); assay: TLR ligand screening: NF-κB activation (SEAP reporter) in HEK293 cells expressing TLR8; conditions: one concentration: NTR001 10 uM, Inosine 100 uM; FIG. 2
T4 construct: expressed in transfected cells; host or cells: HEK293
T4 sequence (Q9NR97 27-1041): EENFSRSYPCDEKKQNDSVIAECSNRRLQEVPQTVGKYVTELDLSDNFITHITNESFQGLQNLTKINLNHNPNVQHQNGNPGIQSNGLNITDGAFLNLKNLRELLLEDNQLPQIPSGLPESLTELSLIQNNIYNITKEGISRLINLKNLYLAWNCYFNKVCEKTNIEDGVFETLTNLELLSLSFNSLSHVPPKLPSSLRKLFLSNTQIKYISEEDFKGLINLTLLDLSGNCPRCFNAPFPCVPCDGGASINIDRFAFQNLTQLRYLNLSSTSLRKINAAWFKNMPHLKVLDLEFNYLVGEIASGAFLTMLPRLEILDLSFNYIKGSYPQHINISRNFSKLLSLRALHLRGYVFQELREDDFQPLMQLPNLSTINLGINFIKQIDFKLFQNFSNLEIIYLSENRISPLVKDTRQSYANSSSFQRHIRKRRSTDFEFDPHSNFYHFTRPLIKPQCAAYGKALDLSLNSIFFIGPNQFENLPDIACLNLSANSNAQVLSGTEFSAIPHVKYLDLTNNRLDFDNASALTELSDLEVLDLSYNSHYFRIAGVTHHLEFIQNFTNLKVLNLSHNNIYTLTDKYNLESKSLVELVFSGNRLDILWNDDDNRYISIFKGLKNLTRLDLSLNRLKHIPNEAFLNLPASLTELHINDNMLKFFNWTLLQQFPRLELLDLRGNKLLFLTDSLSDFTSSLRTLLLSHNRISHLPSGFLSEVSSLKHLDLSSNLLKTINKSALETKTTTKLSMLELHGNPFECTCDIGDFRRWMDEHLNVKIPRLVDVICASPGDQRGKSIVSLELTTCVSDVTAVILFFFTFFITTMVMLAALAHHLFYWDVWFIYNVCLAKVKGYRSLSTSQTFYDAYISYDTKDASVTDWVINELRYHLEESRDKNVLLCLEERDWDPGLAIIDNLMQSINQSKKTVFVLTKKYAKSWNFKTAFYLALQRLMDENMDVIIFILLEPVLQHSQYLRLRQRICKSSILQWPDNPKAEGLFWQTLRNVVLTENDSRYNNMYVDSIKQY
Experimental: as §1

T3 sequence (O00206 24-839): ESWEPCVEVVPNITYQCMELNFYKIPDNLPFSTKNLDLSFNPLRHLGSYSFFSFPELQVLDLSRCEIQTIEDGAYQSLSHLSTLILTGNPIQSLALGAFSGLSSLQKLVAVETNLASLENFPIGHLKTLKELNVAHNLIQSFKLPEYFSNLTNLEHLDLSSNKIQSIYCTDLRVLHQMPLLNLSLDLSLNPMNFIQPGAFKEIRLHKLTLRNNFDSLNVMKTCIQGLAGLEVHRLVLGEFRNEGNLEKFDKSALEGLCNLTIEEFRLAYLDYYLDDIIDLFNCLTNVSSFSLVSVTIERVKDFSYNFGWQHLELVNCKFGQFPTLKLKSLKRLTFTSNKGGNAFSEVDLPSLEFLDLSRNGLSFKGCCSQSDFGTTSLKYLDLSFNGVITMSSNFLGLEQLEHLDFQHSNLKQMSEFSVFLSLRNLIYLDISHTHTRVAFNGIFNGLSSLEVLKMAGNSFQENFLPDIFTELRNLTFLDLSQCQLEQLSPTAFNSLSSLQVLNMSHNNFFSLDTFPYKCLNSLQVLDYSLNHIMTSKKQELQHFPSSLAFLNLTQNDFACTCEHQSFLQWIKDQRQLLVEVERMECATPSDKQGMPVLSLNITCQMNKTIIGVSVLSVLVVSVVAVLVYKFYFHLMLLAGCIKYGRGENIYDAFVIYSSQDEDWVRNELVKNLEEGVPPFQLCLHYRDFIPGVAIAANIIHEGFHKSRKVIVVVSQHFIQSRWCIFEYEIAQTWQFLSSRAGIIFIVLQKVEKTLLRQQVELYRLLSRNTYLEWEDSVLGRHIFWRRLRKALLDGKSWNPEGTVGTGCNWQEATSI
T3 sequence (Q9Y6Y9 17-160 limits assumed): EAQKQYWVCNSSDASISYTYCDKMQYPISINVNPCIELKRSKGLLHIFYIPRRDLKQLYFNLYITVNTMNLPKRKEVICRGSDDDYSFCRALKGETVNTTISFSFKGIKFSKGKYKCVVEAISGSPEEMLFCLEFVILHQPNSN
T1 sequence (O60602 21-858): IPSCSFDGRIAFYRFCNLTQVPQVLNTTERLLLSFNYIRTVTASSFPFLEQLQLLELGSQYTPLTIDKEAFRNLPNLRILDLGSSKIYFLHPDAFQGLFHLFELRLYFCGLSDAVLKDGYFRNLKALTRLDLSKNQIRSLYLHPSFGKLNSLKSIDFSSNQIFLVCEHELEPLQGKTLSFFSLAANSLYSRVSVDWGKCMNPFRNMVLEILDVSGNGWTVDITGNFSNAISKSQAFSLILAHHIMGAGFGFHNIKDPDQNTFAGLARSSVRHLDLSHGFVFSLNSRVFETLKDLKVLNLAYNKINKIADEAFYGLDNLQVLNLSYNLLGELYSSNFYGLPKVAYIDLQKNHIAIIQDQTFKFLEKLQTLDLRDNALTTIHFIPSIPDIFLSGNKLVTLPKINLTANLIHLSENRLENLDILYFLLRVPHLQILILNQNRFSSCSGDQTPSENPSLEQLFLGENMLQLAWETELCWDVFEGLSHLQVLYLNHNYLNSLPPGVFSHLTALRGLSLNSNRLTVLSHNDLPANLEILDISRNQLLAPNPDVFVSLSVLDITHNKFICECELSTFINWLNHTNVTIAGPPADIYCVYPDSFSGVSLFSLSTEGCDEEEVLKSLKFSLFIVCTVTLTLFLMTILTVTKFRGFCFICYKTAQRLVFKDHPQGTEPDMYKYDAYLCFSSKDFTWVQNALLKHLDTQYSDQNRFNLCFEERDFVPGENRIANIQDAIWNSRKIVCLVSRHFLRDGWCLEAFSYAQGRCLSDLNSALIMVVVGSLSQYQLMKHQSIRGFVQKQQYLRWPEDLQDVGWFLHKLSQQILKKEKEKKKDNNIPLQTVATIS

Compound | stimulatory effect on human TLR5 [1] | stimulatory effect on human TLR3 [2] | stimulatory effect on human TLR4 [3] | stimulatory effect on human TLR8 [4]
OC[C@H]1O[C@@H](n2cnc3c(O)ncnc32)[C@H](O)[C@@H]1O [Inosine] | do not exhibit a stimulatory effect | do not exhibit a stimulatory effect | do not exhibit a stimulatory effect | do not exhibit a stimulatory effect
O=c1[nH]cnc2c([C@@H]3N[C@H](CO)[C@@H](O)[C@H]3O)c[nH]c12 [NTR001, 7-[(2S,3S,4R,5R)-3,4-dihydroxy-5-(hydroxymethyl)-2-pyrrolidinyl]-1,5-dihydro-4H-pyrrolo [3,2-d]pyrimidin-4-one] | do not exhibit a stimulatory effect | do not exhibit a stimulatory effect | do not exhibit a stimulatory effect | do not exhibit a stimulatory effect

— patent publication US9452217B2, “Methods for potentiating immune response for the treatment of infectious diseases and cancer” (Nitor Therapeutics, priority 2013, dated 2016)
